pIC50: −log10 of the molar value.
Biological target: T1, Human plasma kallikrein (Homo sapiens, UniProt P03952)
T1 construct: yields a heavy chain (371 amino acids) and a light chain (248 amino acids); purchased Enzyme Research Laboratories
Experiment: Kallikrein Assay (fluorogenic substrate hydrolysis, AFC release)
Assay type: biochemical
Conditions: purified Human plasma kallikrein 0.5 nM; substrate Acetyl-K—P—R-AFC 100 mM; 50 mM HEPES pH 7.4
How it was run: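 Enzyme–inhibitor equilibrated before substrate dilution to ≤0.2 Km; human plasma kallikrein at 0.5 nM final, Acetyl-K-P-R-AFC substrate, HEPES pH 7.4 buffer with NaCl, CaCl2, PEG 8000, at room temperature or 37° C. Linear-phase fluorescence rate gives percent inhibition, four-parameter logistic IC50, then Cheng-Prusoff Ki.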

T1 sequence (P03952 391-638 limits assumed): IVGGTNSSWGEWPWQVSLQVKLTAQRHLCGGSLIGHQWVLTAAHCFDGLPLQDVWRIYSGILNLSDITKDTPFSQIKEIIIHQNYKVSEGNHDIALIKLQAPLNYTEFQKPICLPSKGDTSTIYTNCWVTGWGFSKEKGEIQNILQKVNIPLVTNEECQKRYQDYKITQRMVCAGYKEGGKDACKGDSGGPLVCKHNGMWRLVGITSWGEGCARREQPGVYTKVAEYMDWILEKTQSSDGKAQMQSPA
T1 sequence (P03952 20-390 partner limits assumed): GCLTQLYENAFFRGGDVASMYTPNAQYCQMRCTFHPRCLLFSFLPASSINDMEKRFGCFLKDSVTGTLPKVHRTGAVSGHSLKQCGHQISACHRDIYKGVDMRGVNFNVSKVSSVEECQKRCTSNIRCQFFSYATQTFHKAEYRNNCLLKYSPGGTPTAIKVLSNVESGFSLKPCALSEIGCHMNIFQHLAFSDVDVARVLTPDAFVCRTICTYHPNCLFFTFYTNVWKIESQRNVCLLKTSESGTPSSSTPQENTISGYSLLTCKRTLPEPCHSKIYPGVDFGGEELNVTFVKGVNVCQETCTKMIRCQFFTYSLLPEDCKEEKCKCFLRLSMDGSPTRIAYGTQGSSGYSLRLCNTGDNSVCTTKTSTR

| SMILES | pIC50 |
| --- | --- |
| Cc1cc(N2C[C@H]3C[C@H]3C2=O)ncc1[C@H](C)n1cc(C(=O)N[C@H]2C[C@@H](c3cc(Cl)ccc3-n3cc(F)cn3)C2)nn1 [Example 149, N-((cis)-3-(5-chloro-2-(4-fluoro-1H-pyrazol-1-yl)phenyl)cyclobutyl)-1-((S)-1-(4-methyl-6-((1R,5S)-2-oxo-3-azabicyclo[3.1.0]hexan-3-yl)pyridin-3-yl)ethyl)-1H-1,2,3-triazole-4-carboxamide] | 8.30 |
| CC(c1ncc(N2C[C@H]3C[C@H]3C2=O)cc1F)n1cc(C(=O)N[C@H]2C[C@@H](c3cc(Cl)ccc3C#N)C2)cn1 (single isomer, unassigned) [Example 27, N-((cis)-3-(5-chloro-2-cyanophenyl)cyclobutyl)-1-((S or R)-1-(3-fluoro-5-((1R,5S)-2-oxo-3-azabicyclo[3.1.0]hexan-3-yl)pyridin-2-yl)ethyl)-1H-pyrazole-4-carboxamide] | 7.73 |
| CC(c1cnc(N2C[C@H]3C[C@H]3C2=O)nc1)n1cc(C(=O)N[C@H]2C[C@@H](c3cc(Cl)ccc3C#N)C2)nn1 (single isomer, unassigned) [Example 78] | 7.38 |
| Cc1nc(N2C[C@H]3C[C@H]3C2=O)ccc1C(C)n1cc(C(=O)N[C@H]2C[C@@H](c3cc(Cl)ccc3C#N)C2)nn1 (single isomer, unassigned) [Example 94, N-((cis)-3-(5-chloro-2-cyanophenyl)cyclobutyl)-1-((R or S)-1-(2-methyl-6-((1R,5S)-2-oxo-3-azabicyclo[3.1.0]hexan-3-yl)pyridin-3-yl)ethyl)-1H-1,2,3-triazole-4-carboxamide] | 6.75 |
| Cc1cc(N2C[C@H]3C[C@H]3C2=O)ncc1C(C)n1cc(C(=O)N[C@H]2C[C@@H](c3cc(F)ccc3C#N)C2)cn1 (single isomer, unassigned) [Example 34, N-((cis)-3-(2-cyano-5-fluorophenyl)cyclobutyl)-1-((R or S)-1-(4-methyl-6-((1R,5S)-2-oxo-3-azabicyclo[3.1.0]hexan-3-yl)pyridin-3-yl)ethyl)-1H-pyrazole-4-carboxamide] | 8.29 |
| Cc1ccc(C#N)c([C@H]2C[C@@H](NC(=O)c3cn(C(C)c4cnc(N5C[C@H]6C[C@H]6C5=O)c(C)c4)nn3)C2)c1 (single isomer, unassigned) [Example 134, N-((cis)-3-(2-cyano-5-methylphenyl)cyclobutyl)-1-((S or R)-1-(5-methyl-6-((1R,5S)-2-oxo-3-azabicyclo[3.1.0]hexan-3-yl)pyridin-3-yl)ethyl)-1H-1,2,3-triazole-4-carboxamide] | 8.27 |
| [2H]C1(NC(=O)c2cn([C@@H](C)c3cnc(N4C[C@H]5C[C@H]5C4=O)cc3C)nn2)CC(C)(c2cc(Cl)ccc2C#N)C1 (single isomer, unassigned) [Example 145, N-((cis or trans)-3-(5-chloro-2-cyanophenyl)-3-methylcyclobutyl-1-d)-1-((S)-1-(4-methyl-6-((1R,5S)-2-oxo-3-azabicyclo[3.1.0]hexan-3-yl)pyridin-3-yl)ethyl)-1H-1,2,3-triazole-4-carboxamide] | 6.90 |
| Cc1ncc(C(C)n2cc(C(=O)N[C@H]3C[C@@H](c4cc(Cl)ccc4C#N)C3)nn2)cc1N1C[C@H]2C[C@H]2C1=O (single isomer, unassigned) [Example 140, N-((cis)-3-(5-chloro-2-cyanophenyl)cyclobutyl)-1-((S or R)-1-(6-methyl-5-((1R,5S)-2-oxo-3-azabicyclo[3.1.0]hexan-3-yl)pyridin-3-yl)ethyl)-1H-1,2,3-triazole-4-carboxamide] | 7.95 |
| CC(c1ccc(N2C[C@H]3C[C@H]3C2=O)nc1)n1cc(C(=O)N[C@H]2C[C@@H](c3cc(Cl)ccc3C#N)C2)nn1 (single isomer, unassigned) [Example 58, N-((cis)-3-(5-chloro-2-cyanophenyl)cyclobutyl)-1-((S or R)-1-(6-((1R,5S)-2-oxo-3-azabicyclo[3.1.0]hexan-3-yl)pyridin-3-yl)ethyl)-1H-1,2,3-triazole-4-carboxamide] | 8.30 |
| Cc1nc(N2C[C@H]3C[C@H]3C2=O)ccc1C(C)n1cc(C(=O)N[C@H]2C[C@@H](c3cc(Cl)ccc3C#N)C2)nn1 (single isomer, unassigned) [Example 95, N-((cis)-3-(5-chloro-2-cyanophenyl)cyclobutyl)-1-((S or R)-1-(2-methyl-6-((1R,5S)-2-oxo-3-azabicyclo[3.1.0]hexan-3-yl)pyridin-3-yl)ethyl)-1H-1,2,3-triazole-4-carboxamide] | 7.97 |
| Cc1cc(N2C[C@H]3C[C@H]3C2=O)nnc1C(C)n1cc(C(=O)N[C@H]2C[C@@H](c3cc(Cl)ccc3C#N)C2)nn1 (single isomer, unassigned) [Example 117, N-((cis)-3-(5-chloro-2-cyanophenyl)cyclobutyl)-1-((R or S)-1-(4-methyl-6-((1R,5S)-2-oxo-3-azabicyclo[3.1.0]hexan-3-yl)pyridazin-3-yl)ethyl)-1H-1,2,3-triazole-4-carboxamide] | 6.01 |
| Cc1cc(C(C)(C)n2cc(C(=O)N[C@H]3C[C@@H](c4cc(Cl)ccc4C#N)C3)nn2)cnc1N1C[C@H]2C[C@H]2C1=O [Example 61, N-((cis)-3-(5-chloro-2-cyanophenyl)cyclobutyl)-1-(2-(5-methyl-6-((1R,5S)-2-oxo-3-azabicyclo[3.1.0]hexan-3-yl)pyridin-3-yl)propan-2-yl)-1H-1,2,3-triazole-4-carboxamide] | 8.00 |

The next compounds have a higher pIC50 than those just listed; values first:

| pIC50 | SMILES |
| --- | --- |
| 8.96 | Cc1c([C@@H](C)n2cc(C(=O)NC3CC(c4cc(Cl)ccc4C#N)C3)nn2)cnc(N2C[C@H]3C[C@H]3C2=O)c1O (single isomer, unassigned) [Example 163] |
| 9.70 | Cc1ccc(C#N)c([C@H]2C[C@@H](NC(=O)c3cnn(C(C)c4cnc(N5C[C@H]6C[C@H]6C5=O)c(C)c4C)c3)C2)c1 (single isomer, unassigned) [Example 45, N-((cis)-3-(2-cyano-5-methylphenyl)cyclobutyl)-1-((R or S)-1-(4,5-dimethyl-6-((1R,5S)-2-oxo-3-azabicyclo[3.1.0]hexan-3-yl)pyridin-3-yl)ethyl)-1H-pyrazole-4-carboxamide] |
| 9.15 | Cc1cc(N2C[C@H]3C[C@H]3C2=O)ncc1Cn1cc(C(=O)N[C@H]2C[C@@H](c3cc(Cl)ccc3C#N)C2)cn1 [Example 37, N-((cis)-3-(5-chloro-2-cyanophenyl)cyclobutyl)-1-((4-methyl-6-((1R,5S)-2-oxo-3-azabicyclo[3.1.0]hexan-3-yl)pyridin-3-yl)methyl)-1H-pyrazole-4-carboxamide] |
| 8.33 | Cc1cc(N2C[C@H]3C[C@H]3C2=O)nnc1C(C)n1cc(C(=O)N[C@H]2C[C@@H](c3cc(Cl)ccc3C#N)C2)cn1 (single isomer, unassigned) [Example 53, N-((cis)-3-(5-chloro-2-cyanophenyl)cyclobutyl)-1-((R or S)-1-(4-methyl-6-((1R,5S)-2-oxo-3-azabicyclo[3.1.0]hexan-3-yl)pyridazin-3-yl)ethyl)-1H-pyrazole-4-carboxamide] |
| 10.00 | Cc1c(C(C)n2cc(C(=O)NC3CC(c4cc(Cl)ccc4C#N)C3)cn2)cnc(N2C[C@H]3C[C@H]3C2=O)c1Cl (single isomer, unassigned) [Example 168] |
| 9.05 | Cc1nc(C(C)n2cc(C(=O)N[C@H]3C[C@@H](c4cc(Cl)ccc4C#N)C3)nn2)cnc1N1C[C@H]2CC2C1=O (single isomer, unassigned) [Example 85] |
| 9.22 | [2H][C@]1(NC(=O)c2cn([C@@H](C)c3cnc(N4C[C@H]5C[C@H]5C4=O)cc3C)nn2)C[C@@H](c2cc(Cl)ccc2C#N)C1 [Example 148, N-((cis)-3-(5-chloro-2-cyanophenyl)cyclobutyl-1-d)-1-((S)-1-(4-methyl-6-((1R,5S)-2-oxo-3-azabicyclo[3.1.0]hexan-3-yl)pyridin-3-yl)ethyl)-1H-1,2,3-triazole-4-carboxamide] |
| 8.36 | Cc1c(C(C)n2cc(C(=O)N[C@H]3C[C@@H](c4cc(Cl)ccc4C#N)C3)nn2)cnc(N2C[C@H]3C[C@H]3C2=O)c1F (single isomer, unassigned) [Example 97, N-((cis)-3-(5-chloro-2-cyanophenyl)cyclobutyl)-1-((S or R)-1-(5-fluoro-4-methyl-6-((1R,5S)-2-oxo-3-azabicyclo[3.1.0]hexan-3-yl)pyridin-3-yl)ethyl)-1H-1,2,3-triazole-4-carboxamide] |
| 9.22 | Cc1ccc(C#N)c([C@H]2C[C@@H](NC(=O)c3cn(C(C)c4cnc(N5C[C@H]6C[C@H]6C5=O)c(F)c4C)nn3)C2)c1 (single isomer, unassigned) [Example 120, N-((cis)-3-(2-cyano-5-methylphenyl)cyclobutyl)-1-((S or R)-1-(5-fluoro-4-methyl-6-((1R,5S)-2-oxo-3-azabicyclo[3.1.0]hexan-3-yl)pyridin-3-yl)ethyl)-1H-1,2,3-triazole-4-carboxamide] |
| 9.40 | Cc1ccc(C#N)c([C@H]2C[C@@H](NC(=O)c3cn(C(C)c4cnc(N5C[C@H]6C[C@H]6C5=O)c(C)c4C)nn3)C2)c1 (single isomer, unassigned) [Example 113, N-((cis)-3-(2-cyano-5-methylphenyl)cyclobutyl)-1-((R or S)-1-(4,5-dimethyl-6-((1R,5S)-2-oxo-3-azabicyclo[3.1.0]hexan-3-yl)pyridin-3-yl)ethyl)-1H-1,2,3-triazole-4-carboxamide] |
| 9.22 | Cc1cc([C@H](C)n2cc(C(=O)N[C@H]3C[C@@H](c4cc(Cl)ccc4C#N)C3)cn2)cnc1N1C[C@H]2C[C@H]2C1=O (single isomer, unassigned) [Example 5] |
| 8.41 | Cc1cc(N2C[C@H]3C[C@H]3C2=O)ncc1C(C)n1cc(C(=O)N[C@H]2C[C@@H](c3cc(Cl)ccn3)C2)nn1 (single isomer, unassigned) [Example 74, N-((cis)-3-(4-chloropyridin-2-yl)cyclobutyl)-1-((S or R)-1-(4-methyl-6-((1R,5S)-2-oxo-3-azabicyclo[3.1.0]hexan-3-yl)pyridin-3-yl)ethyl)-1H-1,2,3-triazole-4-carboxamide] |

Source: patent US12528786B2, “Plasma kallikrein inhibitors” (Merck Sharp & Dohme LLC, priority 2020, dated 2026)
